In patent US6054435A, “6-O-substituted macrolides having antibacterial activity” (priority 1999, dated 2000):
Values after ≈ are worked out from the molar mass of the structure shown.

Columns and labels:
Experiment in all cases: in vitro antibacterial activity (MIC), agar dilution
Format in all cases: cell-based
[1] = tested on: Staphylococcus aureus NCTC10649M; conditions: organism code EE; BHI agar, 35-37° C., 20 to 24 hours; unit assumed
Outline: (§1)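 Plates of BHI agar were prepared with twelve aqueous dilutions of compound, then inoculated at 1:100 dilution, or 1:10 for slow growers like Streptococcus. After incubation they were inspected, and the lowest concentration yielding no growth, slight haze or sparse colonies was recorded as MIC.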

[2] = tested on: Micrococcus luteus ATCC 4698; conditions: organism code PP; BHI agar, 35-37° C., 20 to 24 hours; unit assumed
Outline: (§2)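 Antibacterial MIC determined by agar dilution in BHI agar with twelve successive concentrations; controls comprised compound-free plates and a same-class reference antibiotic. MIC: lowest concentration giving no growth, slight haze or sparsely isolated colonies.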

[3] = tested on: Staphylococcus aureus ATCC 6538P; conditions: organism code AA; BHI agar, 35-37° C., 20 to 24 hours; unit assumed
Outline: as §1

Escherichia coli DC-2 = conditions: organism code SS; BHI agar, 35-37° C., 20 to 24 hours; unit assumed
Outline: as §1

[4] = tested on: Staphylococcus aureus CMX 553; conditions: organism code FF; BHI agar, 35-37° C., 20 to 24 hours; unit assumed
Outline: as §1

[5] = tested on: Streptococcus Pneumonia GYR 1171; conditions: organism code YY; BHI agar, 35-37° C., 20 to 24 hours; unit assumed
Outline: as §1

[6] = tested on: Mycobacterium smegmatis ATCC 114; conditions: organism code UU; BHI agar, 35-37° C., 20 to 24 hours; unit assumed
Outline: as §1

[7] = tested on: Staphylococcus aureus CMX 642A; conditions: organism code DD; BHI agar, 35-37° C., 20 to 24 hours; unit assumed
Outline: as §1

Candida albicans CCH 442 = conditions: organism code TT; BHI agar, 35-37° C., 20 to 24 hours; unit assumed
Outline: as §1

[8] = tested on: Staphylococcus aureus A5177; conditions: organism code BB; BHI agar, 35-37° C., 20 to 24 hours; unit assumed
Outline: as §1

[9] = tested on: Haemophilis Influenzae DILL AMP R; conditions: organism code WW; BHI agar, 35-37° C., 20 to 24 hours; unit assumed
Outline: as §1

[10] = tested on: Streptococcus Pneumonia ATCC6303; conditions: organism code XX; BHI agar, 35-37° C., 20 to 24 hours; unit assumed
Outline: as §1

[11] = tested on: Streptococcus pyogenes 930; conditions: organism code MM; BHI agar, 35-37° C., 20 to 24 hours; unit assumed
Outline: as §1

[12] = tested on: Staphylococcus epidermidis 3519; conditions: organism code HH; BHI agar, 35-37° C., 20 to 24 hours; unit assumed
Outline: as §1

[13] = tested on: Nocardia Asteroides ATCC9970; conditions: organism code VV; BHI agar, 35-37° C., 20 to 24 hours; unit assumed
Outline: as §1

[14] = tested on: Staphylococcus aureus A-5278; conditions: organism code CC; BHI agar, 35-37° C., 20 to 24 hours; unit assumed
Outline: as §1

[15] = tested on: Streptococcus pyogenes PIU 2548; conditions: organism code NN; BHI agar, 35-37° C., 20 to 24 hours; unit assumed
Outline: as §1

[16] = tested on: Streptococcus bovis A-5169; conditions: organism code JJ; BHI agar, 35-37° C., 20 to 24 hours; unit assumed
Outline: as §1

Escherichia coli SS = conditions: organism code RR; BHI agar, 35-37° C., 20 to 24 hours; unit assumed
Outline: as §1

[17] = tested on: Streptococcus Pneumonia 5979; conditions: organism code ZZ; BHI agar, 35-37° C., 20 to 24 hours; unit assumed
Outline: as §1

[18] = tested on: Streptococcus pyogenes EES61; conditions: organism code LL; BHI agar, 35-37° C., 20 to 24 hours; unit assumed
Outline: as §1

[19] = tested on: Enterococcus faecium ATCC 8043; conditions: organism code II; BHI agar, 35-37° C., 20 to 24 hours; unit assumed
Outline: as §1

Escherichia coli JUHL = conditions: organism code QQ; BHI agar, 35-37° C., 20 to 24 hours; unit assumed
Outline: as §1

[20] = tested on: Streptococcus agalactiae CMX 508; conditions: organism code KK; BHI agar, 35-37° C., 20 to 24 hours; unit assumed
Outline: as §1

[21] = tested on: Staphylococcus aureus 1775; conditions: organism code GG; BHI agar, 35-37° C., 20 to 24 hours; unit assumed
Outline: as §1

[22] = tested on: Micrococcus luteus ATCC 9341; conditions: organism code OO; BHI agar, 35-37° C., 20 to 24 hours; unit assumed
Outline: as §2

[23] = tested on: Streptococcus Pneumonia 5649; conditions: organism code ZZA; BHI agar, 35-37° C., 20 to 24 hours; unit assumed
Outline: as §1

SMILES	MIC [1] [µg/mL]	MIC [2] [µg/mL]	MIC [3] [µg/mL]	MIC (Escherichia coli DC-2) [µg/mL]	MIC [4] [µg/mL]	MIC [5] [µg/mL]	MIC [6] [µg/mL]	MIC [7] [µg/mL]	MIC (Candida albicans CCH 442) [µg/mL]	MIC [8] [µg/mL]	MIC [9] [µg/mL]	MIC [10] [µg/mL]	MIC [11] [µg/mL]	MIC [12] [µg/mL]	MIC [13] [µg/mL]	MIC [14] [µg/mL]	MIC [15] [µg/mL]	MIC [16] [µg/mL]	MIC (Escherichia coli SS) [µg/mL]	MIC [17] [µg/mL]	also measured
CC[C@H]1OC(=O)[C@H](C)C(=O)[C@H](C)[C@@H](O[C@@H]2O[C@H](C)C[C@H](N(C)C)[C@H]2O)[C@](C)(OCC#Cc2ccc(-c3cncc(C#N)c3)s2)C[C@@H](C)C(=O)[C@H](C)[C@H]2NC(=O)O[C@@]21C [Example 8]	0.02 (≈ 0.0244 µM)	0.05 (≈ 0.0609 µM)	0.05 (≈ 0.0609 µM)	> 100	0.02 (≈ 0.0244 µM)	≤ 0.004	0.78 (≈ 0.95 µM)	0.05 (≈ 0.0609 µM)	> 100	0.05 (≈ 0.0609 µM)	4 (≈ 4.87 µM)	≤ 0.004	0.2 (≈ 0.244 µM)	0.05 (≈ 0.0609 µM)	0.01 (≈ 0.0122 µM)	> 100	0.1 (≈ 0.122 µM)	≤ 0.005	0.2 (≈ 0.244 µM)	0.25 (≈ 0.305 µM)	MIC [18]: ≤ 0.005 µg/mL; MIC [19]: 0.02 µg/mL (≈ 0.0244 µM); MIC (Escherichia coli JUHL): 50 µg/mL (≈ 60.9 µM); MIC [20]: 0.01 µg/mL (≈ 0.0122 µM); MIC [21]: > 100 µg/mL; MIC [22]: ≤ 0.005 µg/mL; MIC [23]: ≤ 0.004 µg/mL
CC[C@H]1OC(=O)[C@H](C)C(=O)[C@H](C)[C@@H](O[C@@H]2O[C@H](C)C[C@H](N(C)C)[C@H]2O)[C@](C)(OC/C=C/c2cncc(-c3ncccn3)c2)C[C@@H](C)C(=O)[C@H](C)[C@H]2NC(=O)O[C@@]21C [Example 46]	0.2 (≈ 0.252 µM)	0.2 (≈ 0.252 µM)	0.1 (≈ 0.126 µM)	100 (≈ 126 µM)	0.2 (≈ 0.252 µM)	0.03 (≈ 0.0378 µM)	6.2 (≈ 7.81 µM)	0.2 (≈ 0.252 µM)	> 100	0.2 (≈ 0.252 µM)	4 (≈ 5.04 µM)	0.03 (≈ 0.0378 µM)	12.5 (≈ 15.7 µM)	0.1 (≈ 0.126 µM)	0.05 (≈ 0.063 µM)	> 100	0.2 (≈ 0.252 µM)	0.01 (≈ 0.0126 µM)	0.39 (≈ 0.491 µM)	128 (≈ 161 µM)	MIC [18]: 0.02 µg/mL (≈ 0.0252 µM); MIC [19]: 0.05 µg/mL (≈ 0.063 µM); MIC (Escherichia coli JUHL): 50 µg/mL (≈ 63 µM); MIC [20]: 0.02 µg/mL (≈ 0.0252 µM); MIC [21]: > 100 µg/mL; MIC [22]: 0.05 µg/mL (≈ 0.063 µM); MIC [23]: 0.5 µg/mL (≈ 0.63 µM)
CC[C@H]1OC(=O)[C@H](C)C(=O)[C@H](C)[C@@H](O[C@@H]2O[C@H](C)C[C@H](N(C)C)[C@H]2O)[C@](C)(OC/C=C/c2cncc(-c3ccco3)c2)C[C@@H](C)C(=O)[C@H](C)[C@H]2NC(=O)O[C@@]21C [Example 50]	0.1 (≈ 0.128 µM)	0.1 (≈ 0.128 µM)	0.05 (≈ 0.0639 µM)	50 (≈ 63.9 µM)	0.02 (≈ 0.0256 µM)	≤ 0.004	0.39 (≈ 0.499 µM)	0.05 (≈ 0.0639 µM)	> 100	0.02 (≈ 0.0256 µM)	2 (≈ 2.56 µM)	≤ 0.004	12.5 (≈ 16 µM)	0.05 (≈ 0.0639 µM)	0.05 (≈ 0.0639 µM)	> 100	0.1 (≈ 0.128 µM)	0.01 (≈ 0.0128 µM)	0.39 (≈ 0.499 µM)	128 (≈ 164 µM)	MIC [18]: 0.02 µg/mL (≈ 0.0256 µM); MIC [19]: 0.05 µg/mL (≈ 0.0639 µM); MIC (Escherichia coli JUHL): 25 µg/mL (≈ 32 µM); MIC [20]: 0.01 µg/mL (≈ 0.0128 µM); MIC [21]: > 100 µg/mL; MIC [22]: 0.01 µg/mL (≈ 0.0128 µM); MIC [23]: 0.12 µg/mL (≈ 0.153 µM)
